{"source": "patent US4879390A", "about": "“Delta-butyrolactams, thereof, processes for the preparation thereof and their medical use” (priority 1984, dated 1989)", "key": {"[1]": {"tested_on": "CCl4 intoxicated mice", "experiment": "Hepato-protective action: SGPT of CCl4 intoxicated mice", "assay_type": "in vivo, male Kunming strain mice", "conditions": "two oral doses of 250 mg/kg", "experimental": "(§1) Male Kunming strain mice weighing 18-22 grams were used throughout the experiments. The compounds to be tested were suspended in 5% Tween 80 and given orally by gavage. The vehicle of 5% Tween 80 solution was administered to control mice via the same route. In in vitro experiments, the compounds were dissolved in dimethylformamide and added directly into the incubation mixture.\n(§2) The parameters adopted for hepatotoxicity included serum transaminase (SGPT), liver triglycerides, and pathological examination of liver tissues. The liver lesions were scored mainly by the extent of inflammation and necrosis and graded from 0 to 4.\n(§3) (a) Hepato-protective action"}, "[2]": {"tested_on": "thioacetamide hepatotoxicity in mice", "experiment": "Protective action against thioacetamide hepatotoxicity in mice", "assay_type": "in vivo, male Kunming strain mice", "conditions": "thioacetamide 50 mg/kg", "experimental": "as §1, §2, §3\nIn the experiment of thioacetamide hepatotoxicity, mice were treated according to the procedure of the first experiment except that thioacetamide (50 mg/kg) was used instead of CCl4."}, "[3]": {"tested_on": "acetaminophen hepatotoxicity in mice", "experiment": "Protective action against acetaminophen hepatotoxicity in mice", "assay_type": "in vivo, male Kunming strain mice", "conditions": "250 mg/kg × 3", "experimental": "as §1, §2\nThe experiment of anti-acetaminophen hepatotoxicity was performed in the following way. Mice were administered two doses (250 mg/kg) of Clausenamide on the first day followed by the same dose on the second day. A dose of 150 mg/kg of acetaminophen was injected ip 6 h after the last dose of the compound. SGPT was determined and liver tissues were examined 20 h after acetaminophen injection."}, "[4]": {"experiment": "Induction of hepatic microsomal cytochrome P-450: liver weight and microsomal protein", "assay_type": "in vivo, male Kunming strain mice", "conditions": "250 mg/kg/day × 3; 6 per group; control 4.0 ± 0.2", "experimental": "as §1\n(§4) The liver microsomal cytochrome P-450 plays a key role in the detoxification of xenobiotics. Mice were administered 250 mg/kg of Clausenamide once daily for 3 days. The control mice received the vehicle. The mice were killed after fasting overnight. Liver microsomes were prepared and microsomal monooxygenases were determined."}, "[5]": {"tested_on": "hepatic microsomal cytochrome P-450", "experiment": "Induction of hepatic microsomal cytochrome P-450", "assay_type": "in vivo, male Kunming strain mice", "experimental": "as §1, §4"}, "[6]": {"tested_on": "Cytochrome b5", "experiment": "Induction of hepatic microsomal enzymes: cytochrome b5", "assay_type": "in vivo, male Kunming strain mice", "experimental": "as §1, §4"}, "[7]": {"tested_on": "pentobarbital sleeping time", "experiment": "Effect on barbiturates sleeping time in mice (pentobarbital)", "assay_type": "in vivo, male Kunming strain mice", "conditions": "250 mg/kg; for Sleeping time (X ± SE): 10 per group, control 71 ± 7, P <0.01", "experimental": "as §1\nIn another experiment, mice were given a dose of 250 mg/kg of Clausenamide. Sodium pentobarbital (50 mg/kg) was injected ip 1 and 24 h after administration of the compounds. The sleeping time was estimated by recording the interval of disappearance and recovery of righting reflex. […] This means that the prolongation of pentobarbital sleeping time by Clausenamide was due to the inhibition of liver drug metabolism enzyme."}, "[8]": {"tested_on": "barbital sleeping time", "experiment": "Effect on barbiturates sleeping time in mice (barbital)", "assay_type": "in vivo, male Kunming strain mice", "experimental": "as §1\nIn another experiment, mice were given a dose of 250 mg/kg of Clausenamide. […] The sleeping time was estimated by recording the interval of disappearance and recovery of righting reflex. […] This means that the prolongation of pentobarbital sleeping time by Clausenamide was due to the inhibition of liver drug metabolism enzyme."}, "[9]": {"tested_on": "mice", "experiment": "Acute toxicity test", "assay_type": "in vivo", "conditions": "single oral dose of 3 grams/kg, 10 mice", "experimental": "as §1"}, "[10]": {"tested_on": "hypoxia tolerance (mouse)", "experiment": "Increase of hypoxia tolerance (mouse)", "assay_type": "in vivo, male mice", "conditions": "for surviving/total animals: 30 min before test, 3.5% oxygen, control 9/60", "experimental": "Collectives of male mice (20 g body weight) are placed in a plastic box divided into two chambers (size of the box: 15×28×40 cm corresponding to a volume of 16.8 l per bos). 20 mice are placed in each chamber. The box is perfused with a gas mixture containing 3.5% oxygen and 96.5% nitrogen. The perfusion volume is 4 l/min. The test substance and vehicle are administered orally 30 min before the test.\nAbout 7 min after onset of perfusion with the hypoxic mixture animals die. The experiment is stopped when in the left hand chamber (control collective) three animals only show signs of respiration. The box is opened and the number of animals of the treated group still alive is counted.\nThe difference between the survived animals in both groups is evaluated using the X^2 test according to Fisher and Yates (1963) (Thomann et al. 1975)."}, "[11]": {"tested_on": "retrograde amnesia (rat)", "experiment": "Retrograde amnesia (rat) under hypoxic conditions", "assay_type": "in vivo, male rats", "conditions": "time to enter dark compartment 24 h after hypoxia", "experimental": "The apparatus (39 cm long, 21 cm high, and 21 cm wide) consists of two compartments, one made of translucent plastic (29 cm long) and the other one painted black (10 cm long). It has a bottom of spaced metal grids which are connected to a stimulating device delivering 1.6 mA for 20 s.\nBoth compartments are connected via a door which can be closed.\nMale rats (100-120 g body weight) will be placed individually in the large compartment and allowed to explore both compartments for 3 min.\nThereafter the animals are placed in the small (dark) compartment, the connecting door is closed and the foot shock is delivered. After that the animals are put in an air-tight cage which is perfused by a gas mixture containing 3.8% oxygen and 96.2 % nitrogen.\n24 hours later the rats are placed again in the bright compartment. The observation time is 3 min.\nOne experiment is performed in three groups of 15 animals each:\nGroup A: control group, not exposed to hypoxia\nGroup B: control group, receiving hypoxia after first training\nGroup C: treated animals, receiving hypoxia after first training.\nEvaluation: the times the animals need to enter the dark compartment are measured in seconds.\nThe time difference between the two control groups is considered to be 100% (A-B=100%).\nThe time difference between the control group B and the treated group C is calculated in percent (C-B=X%). X is considered to be a measure for the potency of the antiamnestic effect of the substance tested."}, "[12]": {"experiment": "Solubility", "assay_type": "physicochemical"}, "[13]": {"conditions": "250 mg/kg once daily for 3 days"}}, "data": [{"smiles": "CN1C(=O)[C@@H](O)[C@H](c2ccccc2)[C@@H]1[C@@H](O)c1ccccc1", "note": "(relative stereo) [Clausenamide]", "values": [{"measurement": "SGPT (X ± SE)", "setting": "[1]; CCl4 intoxicated mice, 8 h apart, 9 per group, control 1678 ± 261", "result": "617 ± 323", "unit": "unit %"}, {"measurement": "SGPT levels of CCl4-intoxicated mice, in words", "setting": "[1]", "result": "significantly decreased SGPT levels"}, {"measurement": "Liver lipids (X ± SE)", "setting": "[2]; 250 mg/kg × 2, control 61 ± 11.7", "result": "39 ± 3.9", "unit": "mg/g"}, {"measurement": "SGPT (X ± SE)", "setting": "[2]; 250 mg/kg × 2, nine mice per group, control 1696 ± 231, P < 0.01", "result": "718 ± 229", "unit": "unit %"}, {"measurement": "SGPT levels, in words", "setting": "[2]", "result": "markedly lowered the SGPT levels"}, {"measurement": "Hepatic injuries, in words", "setting": "[3]; acetaminophen 150 mg/kg ip", "result": "markedly decreased SGPT levels and hepatic injuries"}, {"measurement": "SGPT levels, in words", "setting": "[3]; acetaminophen 150 mg/kg ip", "result": "markedly decreased SGPT levels"}, {"measurement": "Liver lipids", "setting": "[3]; acetaminophen 150 mg/kg ip, control 79 ± 13", "result": "82 ± 17", "unit": "mg/g"}, {"measurement": "SGPT", "setting": "[3]; acetaminophen 150 mg/kg ip, nine mice per group, control 2778 ± 270, P < 0.01", "result": "697 ± 163", "unit": "unit %"}, {"measurement": "Liver inflammation (grade)", "setting": "[3]; acetaminophen, graded from 0 to 4, control 0.5", "result": 0.1, "unit": "grade"}, {"measurement": "Liver necrosis (grade)", "setting": "[3]; acetaminophen, graded from 0 to 4, control 1.4", "result": 0, "unit": "grade"}, {"measurement": "Liver weight", "setting": "[4]", "result": "5.4 ± 0.2", "unit": "g %"}, {"measurement": "Hepatic cytochrome P-450, in words", "setting": "[5]; [13]", "result": "increased significantly"}, {"measurement": "Cytochrome P-450", "setting": "[5]; 250 mg/kg/day × 3, 6 per group, control 0.87 ± 0.07", "result": "1.14 ± 0.07", "unit": "nmol/mg protein"}, {"measurement": "Action on hepatic microsomal cytochrome P-450 (concluded from sleeping time and enzyme data)", "setting": "[5]; 250 mg/kg, biphasic", "result": "inhibition and followed by induction"}, {"measurement": "Cytochrome b5, in words", "setting": "[6]; [13]", "result": "increased significantly"}, {"measurement": "Cytochrome b5", "setting": "[6]; 250 mg/kg/day × 3, 6 per group, control 0.15 ± 0.01", "result": "0.19 ± 0.01", "unit": "nmol/mg protein"}, {"measurement": "Sleeping time (X ± SE)", "setting": "[7]; 1 h before pentobarbital 50 mg/kg", "result": "152 ± 17", "unit": "min"}, {"measurement": "Pentobarbital sleeping time, in words", "setting": "[7]; 1 h prior to pentobarbital", "result": "prolonged markedly"}, {"measurement": "Pentobarbital sleeping time, in words", "setting": "[7]; 24 h before pentobarbital", "result": "shortened significantly"}, {"measurement": "Sleeping time (X ± SE)", "setting": "[7]; 24 h before pentobarbital 50 mg/kg", "result": "46 ± 6", "unit": "min"}, {"measurement": "Sleeping time (X ± SE)", "setting": "[8]; 250 mg/kg, 1 h before barbital 200 mg/kg, 10 per group, control 197 ± 27, P >0.05", "result": "172 ± 13", "unit": "min"}, {"measurement": "Barbital sleeping time, in words", "setting": "[8]; prior administration of the compound", "result": "did not affect sleeping time"}, {"measurement": "Death in 7 days", "setting": "[9]", "result": "did not cause death"}, {"measurement": "effect", "setting": "[10]; 10 mg/kg p.o.", "result": 19.6, "unit": "%"}, {"measurement": "surviving/total animals", "setting": "[10]; 10 mg/kg p.o.", "result": "19/60"}, {"measurement": "effect", "setting": "[10]; 30 mg/kg p.o.", "result": 41.1, "unit": "%"}, {"measurement": "surviving/total animals", "setting": "[10]; 30 mg/kg p.o.", "result": "31/60"}, {"measurement": "effect", "setting": "[10]; 100 mg/kg p.o.", "result": 58.8, "unit": "%"}, {"measurement": "increase in the survival rate", "setting": "[10]; 100 mg/kg p.o.", "result": 59, "unit": "%"}, {"measurement": "surviving/total animals", "setting": "[10]; 100 mg/kg p.o.", "result": "40/60"}, {"measurement": "hypoxia tolerance, in words", "setting": "[10]; 10 to 100 mg/kg p.o.", "result": "significantly increased"}, {"measurement": "X (antiamnestic effect, C-B as percent of A-B)", "setting": "[11]; 3 mg/kg p.o.", "result": 47, "unit": "%"}, {"measurement": "X (antiamnestic effect, C-B as percent of A-B)", "setting": "[11]; 10 mg/kg p.o.", "result": 65, "unit": "%"}, {"measurement": "X (antiamnestic effect, C-B as percent of A-B)", "setting": "[11]; 30 mg/kg p.o.", "result": 100, "unit": "%"}, {"measurement": "solubility in common organic solvents", "setting": "[12]; CHCl3, CH2Cl2, ether, ethyl acetate, etc.", "result": "only slightly soluble"}, {"measurement": "solubility in hot methanol, DMSO and DMF", "setting": "[12]; hot methanol, DMSO and DMF", "result": "soluble"}]}]}
